Source: patent US5585352A, “Method of treating septic shock using thymosin-α 1” (The George Washington University Medical Center, priority 1994, dated 1996)
No end group written: not given here.

Experiments:
glutathione (RBC GSH) [1] = test: Glutathione levels in a rat septic shock model; format: in vivo, Sprague-Dawley rats; details: Rats with Septic Shock + Tα1 mg/rat × 3
Description: (§1) Using a septic shock model in rats (Sprague-Dawley, male, 200-225 g each), the effect of thymosin α1 alone and together with antibiotics was studied. Peritonitis was induced in rats in the following way. A 1-cm incision was made into the peritoneal which exposed the cecum. A tight ligature was placed around the cecum with 4-0 suture distal to the insertion of the small bowel, forming an area of devitalized tissue while maintaining bowel continuity. A puncture wound was made with 16-gauge needle into the anti-mesenteric surface of the cecum and a small amount of fecal contents was expressed through the wound. The cecum was replaced into the peritoneal cavity, and the anterior peritoneal wall and skin were closed with surgical staples. Each animal was given a bolus of normal saline (15 ml/kg) for hydration and allowed to recover overnight.
(§2) **At 0 hr, 2 hr, and 4 hr post induction of peritonitis

TNF-α = test: Serum TNF-α levels in mice treated with lethal doses of endotoxin; format: in vivo, Swiss-Webster mice
Experimental: (§3) Swiss-Webster mice 4-6 weeks of age (20-25 g) were divided into 2 groups: endotoxic mice (endotoxin 60 mg/kg i.p. in acute treatment) and endotoxic mice treated with 3 injections of 100 μg Tα1 (5 minutes, 2 and 4 hours post administration of the endotoxin).
(§4) *Mice were pretreated with SOD (super oxide dismatase), 30 minutes before
(§5) endotoxin administration XX blood for determined of TNFα and
(§6) IL1α levels was collected 1 hr after endotoxin administration.
(§7) Using the same methods and materials as in examples 1 and 2, the effect which Tα1 has on blood levels of IL-1α, TNF-α, PAG, Txβ2 and 6-keto-PGF1 α, which are pathological mediators of endotoxin induced lethality, was studied.

T × β2 = test: Txβ2 levels in a septic shock model in rat; format: in vivo, Sprague-Dawley rats; details: Rats with Septic Shock + Tα1 1 mg/rat × 3
Description: as §1, §2

6-keto-PGF1α = 6-keto-PGF1α plasma levels in mice after lethal dose of endotoxin; format: in vivo, Swiss-Webster mice
Experimental: as §3, §7

malonyldialdehyde [2] = test: Lipid peroxidation (blood malonyldialdehyde) in a septic shock model in rat; format: in vivo, Sprague-Dawley rats; details: Rats with Septic + Tα1 1 mg/rat × 3
Description: as §1, §2

[3] = tested on: Cerebellar cortex cyclic GMP; test: cGMP cerebellar levels in mice treated with lethal doses of endotoxin; format: in vivo, Swiss-Webster mice
Experimental: as §3

[4] = tested on: blood free radical levels; test: Blood free radical levels; format: in vivo; details: compared with SOD
PAF = PAF blood levels in mice after lethal dose of endotoxin; format: in vivo, Swiss-Webster mice
Experimental: as §3, §7

glutathione (RBC GSH) [5] = test: Erythrocyte glutathione levels in mice treated with lethal doses of endotoxin; format: in vivo, Swiss-Webster mice
Experimental: as §3
*Total erythrocyte glutathione, 98% of which is in the reduced form (GSH)
was determined by the enzymatic "cyclic method."-

Rats with Septic Shock = test: Survival in septic shock model in rats (peritonitis by cecal ligation and puncture); format: in vivo, Sprague-Dawley rats; details: for Survival of Sprague-Dawley rats, 48 hr / Survival of Sprague-Dawley rats, 72 hr / Survival of Sprague-Dawley rats, 24 hr: rats with peritonitis, both groups got antibiotic (gentamicin sulfate, 1 mg/rat), 10 at 0 hr; for Survival of Sprague-Dawley rats, 48 hr / Survival of Sprague-Dawley rats, 72 hr: thymosin α1 1 mg/rat × 3; for Survival of Sprague-Dawley rats, 24 hr: thymosin α1 1 mg/rat × 3 at 0, 2 and 4 hr post induction; for Number of Rats Alive, 24 h / Number of Rats Alive, 48 h / Number of Rats Alive, 72 h: Rats with Septic Shock + Tα1 1 mg/rat × 3, 10 alive at 0 h
Description: as §1
*gentamicin sulfate, 1 mg/rat
as §2

Txβ2 = Txβ2 plasma levels in mice after lethal dose of endotoxin; format: in vivo, Swiss-Webster mice
Experimental: as §3, §7

6-keto-PGF1 = 6-keto-PGF1 levels in a septic shock model in rat; format: in vivo, Sprague-Dawley rats; details: Rats with Septic Shock + Tα1 1 mg/rat × 3
Description: as §1, §2

malonyldialdehyde [6] = test: Blood hydroperoxide (malonyldialdehyde) levels in mice treated with lethal doses of endotoxin; format: in vivo, Swiss-Webster mice
Experimental: as §3
*Whole blood samples (0.5 ml) were obtained by tail bleds 1 hour after
endotoxin administration

endotoxic mice = test: Survival of Swiss Webster mice following lethal endotoxin dose and Tα1; format: in vivo
Experimental: as §3
Using the same materials and methods as in example 1, the time and dose-dependency of the protective effect of Tα1 on endotoxin lethality were studied.

IL-1α = test: Serum IL-1α levels in mice treated with lethal doses of endotoxin; format: in vivo, Swiss-Webster mice
Experimental: as §3, §4, §5, §6, §7

TNFα = TNFα levels in a septic shock model in rat; format: in vivo, Sprague-Dawley rats; details: Rats with Septic Shock + Tα1 1 mg/rat × 3
Description: as §1, §2

IL1 α = test: IL1α levels in a septic shock model in rat; format: in vivo, Sprague-Dawley rats; details: Rats with Septic Shock + Tα1 1 mg/rat × 3
Description: as §1, §2

[7] = first of two unlabelled columns
[8] = second of two unlabelled columns
[9] = Table VI, serum, Endotoxin 60 mg/kg + Tα1
[10] = Table VII, serum, pretreatment with SOD 3.3 × 10^4 μ/kg (30 minutes before endotoxin) or Tα1 100 μg/mice, blood 1 hr after endotoxin
[11] = Table XIV, Endotoxin 60 mg/kg + Tα1 100 μg administered immediately following
[12] = after administration of a lethal dose of endotoxin
[13] = Table XII, Endotoxin 60 mg/kg + Tα1 100 μg administered immediately following
[14] = Table X, Endotoxin 60 mg/kg + Tα1 100 μg administered immediately following
[15] = Table XIII, Endotoxin 60 mg/kg + Tα1 100 μg administered immediately following
[16] = during sepsis, species not given
[17] = Table XI, Endotoxin 60 mg/kg + Tα1 100 μg administered immediately following
[18] = Table I, Endotoxin 60 mg/kg + Tα1 100 μg 3×, 7 alive at 0 hrs
[19] = Table II, Endotoxin 60 mg/kg + Tα1 100 μg 3×, 8 alive at 0 hr.
[20] = Table VIII, Tα1 10 μg, 3×, immediately following, 2 and 4 hrs. after endotoxin, 8 alive at 0 hrs
[21] = Table VIII, Tα1 100 μg, 3×, 2, 4 and 6 hrs. after endotoxin, 8 alive at 0 hrs
[22] = Table VIII, Tα1 100 μg, 3×, immediately following, 2 and 4 hrs. after endotoxin, 8 alive at 0 hrs
[23] = Table IX, Endotoxin 60 mg/kg + Tα1 100 μg administered immediately following

Thymosin α1 (SDAAVDTSSEITTKDLKEKKEVVEEAEN; ends and bridges not checked; UniProt P06454 2-29, looked up) [Tα1, peptide originally derived from the Thymus gland, 28 amino acids; synthetic Tα1 prepared by solid phase peptide synthesis]
RBC GSH (glutathione (RBC GSH) [1]; [7]): 1.29 ± 0.07 μmoles/ml cells | RBC GSH (glutathione (RBC GSH) [1]; [8]): 1.20 ± 0.085 μmoles/ml cells | TNF-α, 1 hr (TNF-α; [9]): 638 ± 57 pg/mL | TNF-α, 3 hr (TNF-α; [9]): 426 ± 37 pg/mL | TNF-α, 5 hr (TNF-α; [9]): 297 ± 27 pg/mL | TNF-α (TNF-α; [10]): 285 ± 23.6 pg/mL | TNF-α (serum levels), 1 hr (TNF-α; [11]): 783 pg/mL | TNF-α (serum levels), 3 hr (TNF-α; [11]): 508 pg/mL | TNF-α (serum levels), 5 hr (TNF-α; [11]): 429 pg/mL | TNF-α serum levels (TNF-α; [12]): decreased | T × β2 (T × β2): 2353 ± 197 pg/mL | 6-keto-PGF1α (plasma levels), 0.5 hr. (6-keto-PGF1α; [13]): 224 ± 19 pg/mL | 6-keto-PGF1α (plasma levels), 1 hr (6-keto-PGF1α; [13]): 745 ± 62 pg/mL | 6-keto-PGF1α (plasma levels), 2 hr (6-keto-PGF1α; [13]): 341 ± 33 pg/mL | 6-keto-PGF1α (plasma levels), 3 hr (6-keto-PGF1α; [13]): 205 ± 19 pg/mL | 6-keto-PGF1 α plasma levels (6-keto-PGF1α; [12]): decreased | Blood Levels of malonyldialdehyde (malonyldialdehyde [2]; [7]): 17.1 ± 1.6 nNol MDA | Blood Levels of malonyldialdehyde (malonyldialdehyde [2]; [8]): 21.9 ± 2.3 nNol MDA | Cerebellar cortex cyclic GMP ([3]; Endotoxin 60 mg/kg i.p. + Tα1 100 μg): 14.6 ± 1.2 pmol per mg/protein | cerebellar cGMP levels ([3]; administration during sepsis): decreases cerebellar cGMP levels | blood free radical levels [4]: reduce blood free radical levels almost as much as SOD | PAF (plasma levels), 0.5 hr (PAF; [14]): 48 ± 3 pg/mL | PAF (plasma levels), 1 hr (PAF; [14]): 136 ± 9 pg/mL | PAF (plasma levels), 2 hr (PAF; [14]): 68 ± 4 pg/mL | PAF (plasma levels), 3 hr (PAF; [14]): 32 ± 2 pg/mL | PAF (serum levels), 1 hr (PAF; [15]): 783 pg/mL | PAF (serum levels), 3 hr (PAF; [15]): 508 pg/mL | PAF (serum levels), 5 hr (PAF; [15]): 429 pg/mL | PAF plasma levels (PAF; [12]): decreased | RBC GSH (glutathione (RBC GSH) [5]; Endotoxin 60 mg/kg + Tα1 100 μg/mouse, total erythrocyte glutathione): 1.12 ± 0.12 μmoles/ml cells | circulating blood levels of glutathione (glutathione (RBC GSH) [5]; [16]): returns circulatory gluthathine leves to normal or about normal | Survival of Sprague-Dawley rats, 48 hr (Rats with Septic Shock; Table XV): 6 | Survival of Sprague-Dawley rats, 72 hr (Rats with Septic Shock; Table XV): 6 | Survival of Sprague-Dawley rats, 24 hr (Rats with Septic Shock; Table XV): 8 | survival of rats (Rats with Septic Shock; Table XV, with antibiotic): increased the survival of rats | Number of Rats Alive, 24 h (Rats with Septic Shock; Table XX): 9 | Number of Rats Alive, 48 h (Rats with Septic Shock; Table XX): 9 | Number of Rats Alive, 72 h (Rats with Septic Shock; Table XX): 5 | Number of Rats Alive, 24 h (Rats with Septic Shock; Table XXI): 8 | Number of Rats Alive, 48 h (Rats with Septic Shock; Table XXI): 7 | Number of Rats Alive, 72 h (Rats with Septic Shock; Table XXI): 3 | survival rate of rats with septic shock (Rats with Septic Shock; Tables XX and XXI): increases the survival rate of rats with septic shock | T × β2 (plasma levels), 0.5 hr. (Txβ2; [17]): 910 ± 85 pg/mL | T × β2 (plasma levels), 2 hr (Txβ2; [17]): 530 ± 47 pg/mL | T × β2 (plasma levels), 1 hr (Txβ2; Table XI, Endotoxin 60 mg/kg + Tα1 100 μg administered immediately following, spread 185 printed): 1921 pg/mL | T × β2 (plasma levels), 3 hr (Txβ2; Table XI, Endotoxin 60 mg/kg + Tα1 100 μg administered immediately following, spread 260 printed): 391 pg/mL | Txβ2 plasma levels (Txβ2; [12]): decreased | 6-keto-PGF1 (6-keto-PGF1): 1132 ± 96 pg/mL | Blood Levels of malonyldialdehyde (malonyldialdehyde [6]; Endotoxin 60 mg/kg + Tα1 100, whole blood 1 hour after endotoxin administration): 16.9 ± 1.36 nMol MDA | peroxidation of lipids in blood (malonyldialdehyde [6]; [16]): returned to normal or about normal | Number of Mice Alive, 24 hrs (endotoxic mice; Table I, Endotoxin 60 mg/kg + Tα1 100 μg 3× (5 minutes, 2 and 4 hours post endotoxin), 7 alive at 0 hrs): 7 | Number of Mice Alive, 48 hrs (endotoxic mice; [18]): 7 | Number of Mice Alive, 72 hrs (endotoxic mice; [18]): 7 | Number of Mice Alive, 24 hr. (endotoxic mice; [19]): 8 | Number of Mice Alive, 48 hr. (endotoxic mice; [19]): 8 | Number of Mice Alive, 72 hr. (endotoxic mice; [19]): 8 | Number of Mice Alive, 7 day (endotoxic mice; [19]): 8 | Number of Mice Alive, 14 day (endotoxic mice; [19]): 8 | Number of Mice Alive, 24 hrs (endotoxic mice; Table VIII, Endotoxin 60 mg/kg + Tα1 10 μg, 3×, immediately following, 2 and 4 hrs. after endotoxin, 8 alive at 0 hrs): 8 | Number of Mice Alive, 24 hrs (endotoxic mice; Table VIII, Endotoxin 60 mg/kg + Tα1 100 μg, 3×, 2, 4 and 6 hrs. after endotoxin, 8 alive at 0 hrs): 8 | Number of Mice Alive, 24 hrs (endotoxic mice; Table VIII, Endotoxin 60 mg/kg + Tα1 100 μg, 3×, immediately following, 2 and 4 hrs. after endotoxin, 8 alive at 0 hrs): 8 | Number of Mice Alive, 48 hrs (endotoxic mice; [20]): 5 | Number of Mice Alive, 72 hrs (endotoxic mice; [20]): 5 | Number of Mice Alive, 96 hrs (endotoxic mice; [20]): 5 | Number of Mice Alive, 120 hrs (endotoxic mice; [20]): 5 | Number of Mice Alive, 48 hrs (endotoxic mice; [21]): 8 | Number of Mice Alive, 72 hrs (endotoxic mice; [21]): 8 | Number of Mice Alive, 96 hrs (endotoxic mice; [21]): 8 | Number of Mice Alive, 120 hrs (endotoxic mice; [21]): 8 | Number of Mice Alive, 48 hrs (endotoxic mice; [22]): 8 | Number of Mice Alive, 72 hrs (endotoxic mice; [22]): 8 | Number of Mice Alive, 96 hrs (endotoxic mice; [22]): 8 | Number of Mice Alive, 120 hrs (endotoxic mice; [22]): 8 | survival rate of mice treated with endotoxin (endotoxic mice; Tα1 administered 3 times post administration of endotoxin, Tables I and II): 100% | effective protective dose (endotoxic mice; administered three times, endotoxin lethality in mice): 100 µg | protective effect on endotoxin toxicity (endotoxic mice; given immediately following, 2 and 4 hours after, or 2, 4 and 6 hours after endotoxin treatment): had protective effect on endotoxin toxicity | IL-1α (serum levels), 1 hr (IL-1α; [23]): 83 ± 7.1 pg/mL | IL-1α (serum levels), 3 hr (IL-1α; [23]): 165 ± 13.7 pg/mL | IL-1 α (IL-1α; [10]): 109 ± 71 pg/mL | IL-1α serum levels (IL-1α; [12]): decreased | TNFα (TNFα): 1231 ± 129 pg/mL | IL1 α (IL1 α): 689 ± 53 pg/mL

gentamicin sulfate [antibiotic, reference compound]
Survival of Sprague-Dawley rats, 48 hr (Rats with Septic Shock; Table XV): 1 | Survival of Sprague-Dawley rats, 72 hr (Rats with Septic Shock; Table XV): 0 | Survival of Sprague-Dawley rats, 24 hr (Rats with Septic Shock; Table XV): 1
